Here are results for ten compounds from US7935688B2, “Vitamin D-like compound” (Chugai Seiyaku Kabushiki Kaisha, priority 2005, dated 2011).

This experiment concerns osteocalcin production in MG-63 cells. Nature of the experiment: Osteocalcin production in MG-63 cells (Gla-type Osteocalcin EIA). The experiment is classed as cell-based, human. The note with it: (EC50 value of 1,25(OH)2D3/EC50 value of each compound)×100; eight hours exposure, then four days culture. The protocol:
mg-63 was obtained from Institute for Fermentation, Osaka as a human osteoblast-like cell line. MG-63 cells were maintained and cultured in a MEM medium (Minimum essential medium; pH 7.0; Invitrogen Corporation, Carlsbad, Calif., USA) containing 5% fetal bovine serum (FBS; HyClone, Logan, Utah, USA).
MG-63 cells were adjusted to a density of 4.0×10^4 cells/mL, plated in a 96-well plate at 200 μL per well, and cultured under conditions of 37° C. and 5% carbon dioxide for 24 hours.
After removing the medium, MEM containing 5% charcoal/dextran treated FBS (DCC-FBS; Hyclone, Logan, Utah, USA) was added at 180 μL/well. The test substance (1.0×10^−3 mol/L) was diluted with dimethyl sulfoxide (DMSO) to 1.0×10^−4 mol/L, 1.0×10^−5 mol/L, 1.0×10^−6 mol/L, 1.0×10^−7 mol/L and 1.0×10^−8 mol/L. 1,25(OH)2D3 was used as a positive control. Like the test substance, 1,25(OH)2D3 was diluted with DMSO. 0.02 mL of the positive control and the test substance diluted 100-fold with MEM containing 5% DCC-FCS was added to each well of the 96-well plate, so that the final drug concentration was 1.0×10^−6 mol/L to 1.0×10^−11 mol/L. Thereafter, the cells were cultured under conditions of 37° C. and 5% carbon dioxide for eight hours.
After culturing for eight hours, the medium was removed, and MEM containing 5% DCC-FBS was added at 0.2 mL per well. The cells were cultured under conditions of 37° C. and 5% carbon dioxide for four days, and the medium was recovered. The medium was stored at −80° C. until osteocalcin measurement.
The Gla-type Osteocalcin EIA kit (Takara Bio Inc., Tokyo, Japan) was used for measurement of osteocalcin. Measurement was carried out using a microplate reader (Model 3550, Bio-Rad Laboratories, Inc., Hercules, Calif., USA) at a wavelength of 450 nm, and the results were analyzed by Microplate Manager III (Bio-Rad Laboratories, Inc., ver. 1.57).
The median effective concentration (EC50) was calculated from the osteocalcin concentration. Potency of induction of each compound was calculated as a ratio of EC50 of 1,25(OH)2D3 to EC50 of the compound. The relation between diseases and induction of osteocalcin production is described in Lancet (1984 May 19), 1 (8386), 1091-3; Steroids 66, 159-170 (2001); and Journal of Steroid Biochemistry & Molecular Biology 89-90, 269-271 (2004), for example.
The osteocalcin production level in MG-63 cells (%) was calculated by the formula: (EC50 value of 1,25(OH)2D3/EC50 value of each compound)×100.
`CCC(CC)(c1ccc(/C=C/C2(O)CCCCC2)c(C)c1)c1ccc(-c2ccc(CC(=O)O)cn2)c(C)c1` [Example 91, {6-[4-(1-ethyl-1-{4-[(E)-2-(1-hydroxy-cyclohexyl)-vinyl]-3-methyl-phenyl}-propyl)-2-methyl-phenyl]-pyridin-3-yl}-acetic Acid]: the “Osteocalcin production level in MG-63 cells (%)” value came to 1074%.

`CCC(CC)(c1ccc(/C=C/C(O)(C(F)(F)F)C(F)(F)F)c(C)c1)c1ccc(-c2cncc(CC(=O)O)c2)c(C)c1` [Example 75, [5-(4-{1-ethyl-1-[3-methyl-4-((E)-4,4,4-trifluoro-3-hydroxy-3-trifluoromethyl-1-butenyl)-phenyl]-propyl}-2-methyl-phenyl)-pyridin-3-yl]-acetic Acid]: the “Osteocalcin production level in MG-63 cells (%)” value was 1283%.

On to `CCC(CC)(c1ccc(C#CC2(O)CCCC2)c(C)c1)c1ccc(-c2ccc(CC(=O)O)c(F)c2)c(C)c1` [Example 93, (4′-{1-ethyl-1-[4-(1-hydroxy-cyclopentylethynyl)-3-methyl-phenyl]-propyl}-3-fluoro-2′-methyl-biphenyl-4-yl)-acetic Acid], for which the “Osteocalcin production level in MG-63 cells (%)” value was determined as 487%.

Consider `CCC(CC)(c1ccc(CCC(O)C(C)(C)C)c(C)c1)c1ccc(-c2cccc(CC(=O)O)c2)c(C)c1` (single isomer, unassigned) [Example 14, (4′-{1-ethyl-1-[4-(3-hydroxy-4,4-dimethyl-pentyl)-3-methyl-phenyl]-propyl}-2′-methyl-biphenyl-3-yl)-acetic Acid], for which the “Osteocalcin production level in MG-63 cells (%)” value stood at 161%.

Consider `CCC(CC)(c1ccc(/C=C/C(O)(C(F)(F)F)C(F)(F)F)c(C)c1)c1ccc(-c2ccc(CC(=O)O)c(F)c2)c(C)c1` [Example 72, (4′-{1-ethyl-1-[3-methyl-4-((E)-4,4,4-trifluoro-3-hydroxy-3-trifluoromethyl-1-butenyl)-phenyl]-propyl}-3-fluoro-2′-methyl-biphenyl-4-yl)-acetic Acid], for which the “Osteocalcin production level in MG-63 cells (%)” value came to 1624%.

For `CCC(CC)(c1ccc(/C=C/C2(O)CCCCC2)c(C)c1)c1ccc(-c2ccc(CC(=O)O)cc2)c(C)c1` [Example 56, (E)-[4′-(1-ethyl-1-{4-[2-(1-hydroxy-cyclohexyl)-vinyl]-3-methyl-phenyl}-propyl)-2′-methyl-biphenyl-4-yl]-acetic Acid], the “Osteocalcin production level in MG-63 cells (%)” value is 1379%.

Regarding `CCC(CC)(c1ccc(CCC(O)C(C)(C)C)c(C)c1)c1ccc(-c2ccc(CC(=O)O)c(F)c2)c(C)c1` (stereo not shown) [Example 60, (4′-{1-ethyl-1-[4-(3-hydroxy-4,4-dimethyl-pentyl)-3-methyl-phenyl]-propyl}-3-fluoro-2′-methyl-biphenyl-4-yl)-acetic Acid], the “Osteocalcin production level in MG-63 cells (%)” value is 3798%.

As for `CCC(CC)(c1ccc(/C=C/C(O)(C(F)(F)F)C(F)(F)F)c(C)c1)c1ccc(-c2ccc(CC(=O)O)cc2)c(C)c1` [Example 46, (4′-{1-ethyl-1-[3-methyl-4-((E)-4,4,4-trifluoro-3-hydroxy-3-trifluoromethyl-1-butenyl)-phenyl]-propyl}-2′-methyl-biphenyl-4-yl)-acetic Acid], the “Osteocalcin production level in MG-63 cells (%)” value is recorded as 2233%.

Consider `CCC(CC)(c1ccc(-c2cncc(CC(=O)O)c2)cc1)c1ccc(OCC(O)C(C)(C)C)c(C)c1` (stereo not shown) [Example 146, [5-(4-{1-ethyl-1-[4-(2-hydroxy-3,3-dimethyl-butoxy)-3-methyl-phenyl]-propyl}-phenyl)-pyridin-3-yl]-acetic Acid], for which the “Osteocalcin production level in MG-63 cells (%)” value is on record as 3721%.

With `CCC(CC)(c1ccc(CCC(O)C(C)(C)C)c(C)c1)c1ccc(-c2ccc(CC(=O)O)cn2)c(C)c1` (single isomer, unassigned) [Example 23, [6-(4-{1-ethyl-1-[4-(3-hydroxy-4,4-dimethyl-pentyl)-3-methyl-phenyl]-propyl}-2-methyl-phenyl)-pyridin-3-yl]-acetic Acid], the “Osteocalcin production level in MG-63 cells (%)” value was determined as 3264%.
